The record followed here is patent US10227350B2 (Gilead Sciences, Inc., priority 2016, dated 2019).

Sequence of PI3Kβ (P42338 whole entry, the tested form may be a part, canonical isoform): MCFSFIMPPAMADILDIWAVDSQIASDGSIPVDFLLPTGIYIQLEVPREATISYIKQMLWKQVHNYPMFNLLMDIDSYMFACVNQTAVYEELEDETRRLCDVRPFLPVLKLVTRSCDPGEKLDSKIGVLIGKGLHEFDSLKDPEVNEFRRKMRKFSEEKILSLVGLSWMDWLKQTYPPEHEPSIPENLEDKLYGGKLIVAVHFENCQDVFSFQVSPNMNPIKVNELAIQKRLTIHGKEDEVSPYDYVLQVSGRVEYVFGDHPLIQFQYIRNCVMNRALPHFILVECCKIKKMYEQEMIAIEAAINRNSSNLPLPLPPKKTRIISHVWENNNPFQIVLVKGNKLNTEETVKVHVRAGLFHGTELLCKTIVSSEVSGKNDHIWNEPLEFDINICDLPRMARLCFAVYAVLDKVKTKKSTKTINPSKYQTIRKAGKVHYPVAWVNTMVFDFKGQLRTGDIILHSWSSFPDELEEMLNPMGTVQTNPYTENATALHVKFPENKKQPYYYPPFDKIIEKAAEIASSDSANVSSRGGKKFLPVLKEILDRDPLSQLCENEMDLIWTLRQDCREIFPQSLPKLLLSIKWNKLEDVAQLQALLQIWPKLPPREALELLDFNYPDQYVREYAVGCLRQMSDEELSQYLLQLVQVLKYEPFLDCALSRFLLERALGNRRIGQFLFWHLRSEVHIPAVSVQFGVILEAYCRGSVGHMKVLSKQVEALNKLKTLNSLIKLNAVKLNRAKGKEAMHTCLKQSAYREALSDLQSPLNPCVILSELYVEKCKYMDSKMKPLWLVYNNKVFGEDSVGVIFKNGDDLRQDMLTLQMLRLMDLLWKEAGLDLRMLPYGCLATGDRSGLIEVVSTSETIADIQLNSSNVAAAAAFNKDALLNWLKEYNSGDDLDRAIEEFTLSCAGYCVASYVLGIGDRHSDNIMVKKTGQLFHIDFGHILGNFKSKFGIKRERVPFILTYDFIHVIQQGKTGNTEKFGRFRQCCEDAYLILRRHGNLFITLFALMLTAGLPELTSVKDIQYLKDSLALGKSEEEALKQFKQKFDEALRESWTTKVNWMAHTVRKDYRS
Sequence of PI3Kβ (P27986 whole entry partner, the tested form may be a part, canonical isoform): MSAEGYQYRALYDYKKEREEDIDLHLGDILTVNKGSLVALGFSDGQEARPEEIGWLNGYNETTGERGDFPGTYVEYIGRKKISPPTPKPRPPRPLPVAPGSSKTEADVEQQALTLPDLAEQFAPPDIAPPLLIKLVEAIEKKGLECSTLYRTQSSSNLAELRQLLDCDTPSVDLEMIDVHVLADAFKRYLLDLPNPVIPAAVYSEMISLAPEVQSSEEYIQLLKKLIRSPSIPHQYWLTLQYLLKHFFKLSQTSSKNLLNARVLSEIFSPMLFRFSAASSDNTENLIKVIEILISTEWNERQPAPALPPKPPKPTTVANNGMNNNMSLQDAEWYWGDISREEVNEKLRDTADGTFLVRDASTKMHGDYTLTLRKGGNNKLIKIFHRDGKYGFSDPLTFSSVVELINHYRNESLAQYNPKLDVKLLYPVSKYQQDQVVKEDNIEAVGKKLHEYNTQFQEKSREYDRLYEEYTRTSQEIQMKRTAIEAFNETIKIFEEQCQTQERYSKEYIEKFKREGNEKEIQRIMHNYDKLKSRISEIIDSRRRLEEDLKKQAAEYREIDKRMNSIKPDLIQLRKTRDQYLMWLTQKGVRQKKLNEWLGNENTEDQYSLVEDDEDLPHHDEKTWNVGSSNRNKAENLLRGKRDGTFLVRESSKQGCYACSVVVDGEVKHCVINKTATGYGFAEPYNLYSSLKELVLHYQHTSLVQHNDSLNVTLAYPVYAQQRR

The assay deals with PI3Kβ (Homo sapiens (Human), UniProt P42338). The experiment in a line: TR-FRET enzymatic activity assay, PI3Kβ. The class given is biochemical. The conditions noted are these: 2× Km ATP, 2 μM PIP2, 30 minutes at 25° C., read-out: IC50-PIP-Beta. How it is done:
The compounds of formula (I) were characterized for their enzymatic activity against the PI3K isoforms. The activities were measured using a time-resolved fluorescence resonance energy transfer (TR-FRET) assay. TR-FRET monitored the formation of 3,4,5-inositol triphosphate molecule that competed with fluorescently labeled PIPS for binding to the GRP-1 pleckstrin homology domain protein.
Class I PI3K isoforms were expressed and purified as heterodimeric recombinant proteins. All assay reagents and buffers for the TR-FRET assay were purchased from Millipore. […] The compounds were added to the assay solution and incubated for 30 minutes at 25° C.
The term IC50 denotes the point on the concentration scale where inhibition reaches its midpoint. Regarding `Cc1nc2c(-c3nnc[nH]3)cc(-c3ccnc(N)c3F)cc2n1-c1ccnc2c(F)ccc(F)c12` (atropisomer, axis not shown) [Example 106, 4-[3-(5,8-difluoroquinolin-4-yl)-2-methyl-7-(4H-1,2,4-triazol-3-yl)benzimidazol-5-yl]-3-fluoropyridin-2-amine], the concentration for half-maximal inhibition (IC50) amounted to 3 nM. For `Cc1nc2c(-c3nnc[nH]3)cc(-c3ccncc3)cc2n1-c1ccnc2c(F)ccc(F)c12` (atropisomer, axis not shown) [Example 139, 5,8-difluoro-4-(2-methyl-6-(pyridin-4-yl)-4-(4H-1,2,4-triazol-3-yl)-1H-benzo[d]imidazol-1-yl)quinoline], the IC50 was determined as 6 nM. On to `Cc1nc2c(-c3nnc[nH]3)cc(-c3ccnc(N)c3)cc2n1-c1ccnc2c(F)ccc(F)c12` (single isomer, unassigned) [Example 103, 4-(1-(5,8-difluoroquinolin-4-yl)-2-methyl-4-(4H-1,2,4-triazol-3-yl)-1H-benzo[d]imidazol-6-yl)pyridin-2-amine], for which the IC50 amounted to 210 nM. Regarding `Cc1nc2c(-c3nnc[nH]3)cc(-c3ccnc(N)c3)cc2n1-c1ccnc2c(F)ccc(F)c12` (single isomer, unassigned) [Example 104, 4-(1-(5,8-difluoroquinolin-4-yl)-2-methyl-4-(4H-1,2,4-triazol-3-yl)-1H-benzo[d]imidazol-6-yl)pyridin-2-amine], the IC50 is 9 nM.

Turning to `Cc1nc2c(-c3nnc[nH]3)cc(-c3ccnc(N)c3F)cc2n1-c1ccnc2c(F)ccc(F)c12` (single isomer, unassigned) [Example 105, 4-[3-(5,8-difluoroquinolin-4-yl)-2-methyl-7-(4H-1,2,4-triazol-3-yl)benzimidazol-5-yl]-3-fluoropyridin-2-amine], the IC50 came to 1400 nM.

Turning to `Cc1nc2c(-c3nnc[nH]3)cc(-c3ccnc(N)c3F)cc2n1-c1c(Cl)cnc2c(F)cccc12` (single isomer, unassigned) [Example 107, 4-[3-(3-chloro-8-fluoroquinolin-4-yl)-2-methyl-7-(4H-1,2,4-triazol-3-yl)benzimidazol-5-yl]-3-fluoropyridin-2-amine], the IC50 turned out to be 29 nM. As for `Cc1nc2c(-c3nnc[nH]3)cc(-c3ccnc(N)c3F)cc2n1-c1c(Cl)cnc2c(F)cccc12` (single isomer, unassigned) [Example 108, 4-[3-(3-chloro-8-fluoroquinolin-4-yl)-2-methyl-7-(4H-1,2,4-triazol-3-yl)benzimidazol-5-yl]-3-fluoropyridin-2-amine], the IC50 came to 810 nM. The value for `CCc1nc2c(-c3nnc[nH]3)cc(-c3ccnc(N)c3F)cc2n1-c1ccnc2c(F)ccc(F)c12` (single isomer, unassigned) [Example 109, 4-[3-(5,8-difluoroquinolin-4-yl)-2-ethyl-7-(4H-1,2,4-triazol-3-yl)benzimidazol-5-yl]-3-fluoropyridin-2-amine] was 2600 nM; that for `CCc1nc2c(-c3nnc[nH]3)cc(-c3ccnc(N)c3F)cc2n1-c1ccnc2c(F)ccc(F)c12` (single isomer, unassigned) [Example 110, 4-[3-(5,8-difluoroquinolin-4-yl)-2-ethyl-7-(4H-1,2,4-triazol-3-yl)benzimidazol-5-yl]-3-fluoropyridin-2-amine] was 2 nM; that for `Cc1nnc(-c2cc(-c3ccnc(N)c3F)cc3c2nc(C)n3-c2ccnc3c(Cl)ccc(F)c23)[nH]1` (single isomer, unassigned) [Example 111, 4-[3-(8-chloro-5-fluoroquinolin-4-yl)-2-methyl-7-(5-methyl-4H-1,2,4-triazol-3-yl)benzimidazol-5-yl]-3-fluoropyridin-2-amine] was 2500 nM. As for `Cc1nnc(-c2cc(-c3ccnc(N)c3F)cc3c2nc(C)n3-c2ccnc3c(Cl)ccc(F)c23)[nH]1` (single isomer, unassigned) [Example 112, 4-[3-(8-chloro-5-fluoroquinolin-4-yl)-2-methyl-7-(5-methyl-4H-1,2,4-triazol-3-yl)benzimidazol-5-yl]-3-fluoropyridin-2-amine], the IC50 was determined as 5 nM.

Consider `Cc1nc2c(-c3nnc[nH]3)cc(-c3ccnc(C#N)c3)cc2n1-c1ccnc2c(F)ccc(F)c12` (single isomer, unassigned) [Example 113, 4-[3-(5,8-difluoroquinolin-4-yl)-2-methyl-7-(4H-1,2,4-triazol-3-yl)benzimidazol-5-yl]pyridine-2-carbonitrile], for which the IC50 was 2 nM. Next, `Cc1nc2c(-c3nnc[nH]3)cc(-c3ccnc(C#N)c3)cc2n1-c1ccnc2c(F)ccc(F)c12` (single isomer, unassigned) [Example 114, 4-[3-(5,8-difluoroquinolin-4-yl)-2-methyl-7-(4H-1,2,4-triazol-3-yl)benzimidazol-5-yl]pyridine-2-carbonitrile]: 560 nM; `Cc1nc2c(-c3nnc[nH]3)cc(-c3ccnc(C#N)c3)cc2n1-c1ccnc2cc(F)cc(F)c12` (single isomer, unassigned) [Example 115, 4-(1-(5,7-difluoroquinolin-4-yl)-2-methyl-4-(4H-1,2,4-triazol-3-yl)-1H-benzo[d]imidazol-6-yl)picolinonitrile]: 3 nM. In the case of `Cc1nc2c(-c3nnc[nH]3)cc(-c3ccnc(C#N)c3)cc2n1-c1ccnc2cc(F)cc(F)c12` (single isomer, unassigned) [Example 116, 4-(1-(5,7-difluoroquinolin-4-yl)-2-methyl-4-(4H-1,2,4-triazol-3-yl)-1H-benzo[d]imidazol-6-yl)picolinonitrile], the IC50 was determined as 30 nM. For `Cc1nc2c(-c3nnc[nH]3)cc(-c3ccnc(N)c3F)cc2n1-c1ccnc2cc(F)cc(F)c12` (single isomer, unassigned) [Example 117], the IC50 is 4 nM. Next, `Cc1nc2c(-c3nnc[nH]3)cc(-c3ccnc(N)c3F)cc2n1-c1ccnc2cc(F)cc(F)c12` (single isomer, unassigned) [Example 118]: 35 nM. `Cc1nc2c(-c3nnc[nH]3)cc(-c3ccnc(N)c3F)cc2n1-c1ccnc2c(Cl)ccc(Cl)c12` (single isomer, unassigned) [Example 119, 4-(1-(5,8-dichloroquinolin-4-yl)-2-methyl-4-(4H-1,2,4-triazol-3-yl)-1H-benzo[d]imidazol-6-yl)-3-fluoropyridin-2-amine]: the IC50 came to 87 nM. Take `Cc1nc2c(-c3nnc[nH]3)cc(-c3ccnc(N)c3F)cc2n1-c1ccnc2c(Cl)ccc(Cl)c12` (single isomer, unassigned) [Example 120, 4-(1-(5,8-dichloroquinolin-4-yl)-2-methyl-4-(4H-1,2,4-triazol-3-yl)-1H-benzo[d]imidazol-6-yl)-3-fluoropyridin-2-amine]: the IC50 was determined as 4 nM. `Cc1nc2c(-c3nnc[nH]3)cc(-c3ccnc(C#N)c3)cc2n1-c1ccnc2c(Cl)ccc(Cl)c12` (single isomer, unassigned) [Example 121, 4-(1-(5,8-dichloroquinolin-4-yl)-2-methyl-4-(4H-1,2,4-triazol-3-yl)-1H-benzo[d]imidazol-6-yl)picolinonitrile]: the half-inhibitory concentration (IC50) was 1 nM. Regarding `Cc1nc2c(-c3nnc[nH]3)cc(-c3ccnc(C#N)c3)cc2n1-c1ccnc2c(Cl)ccc(Cl)c12` (single isomer, unassigned) [Example 122, 4-(1-(5,8-dichloroquinolin-4-yl)-2-methyl-4-(4H-1,2,4-triazol-3-yl)-1H-benzo[d]imidazol-6-yl)picolinonitrile], the IC50 came out at 28 nM.

For the compound `Cc1nc2c(-c3nnc[nH]3)cc(-c3ccnc(C#N)c3)cc2n1-c1ccnc2c(F)ccc(Cl)c12` (single isomer, unassigned) [Example 123, 4-(1-(5-chloro-8-fluoroquinolin-4-yl)-2-methyl-4-(4H-1,2,4-triazol-3-yl)-1H-benzo[d]imidazol-6-yl)picolinonitrile], the IC50 is 8 nM. `Cc1nc2c(-c3nnc[nH]3)cc(-c3ccnc(C#N)c3)cc2n1-c1ccnc2c(F)ccc(Cl)c12` (single isomer, unassigned) [Example 124, 4-(1-(5-chloro-8-fluoroquinolin-4-yl)-2-methyl-4-(4H-1,2,4-triazol-3-yl)-1H-benzo[d]imidazol-6-yl)picolinonitrile]: the IC50 turned out to be 160 nM. Take `Cc1nc2c(-c3nnc[nH]3)cc(-c3ccnc(C#N)c3)cc2n1-c1ccnc2cccc(Cl)c12` (single isomer, unassigned) [Example 125, 4-(1-(5-chloroquinolin-4-yl)-2-methyl-4-(4H-1,2,4-triazol-3-yl)-1H-benzo[d]imidazol-6-yl)picolinonitrile]: the IC50 was 110 nM.

Consider `Cc1nc2c(-c3nnc[nH]3)cc(-c3ccnc(C#N)c3)cc2n1-c1ccnc2cccc(Cl)c12` (single isomer, unassigned) [Example 126, 4-(1-(5-chloroquinolin-4-yl)-2-methyl-4-(4H-1,2,4-triazol-3-yl)-1H-benzo[d]imidazol-6-yl)picolinonitrile], for which the IC50 is 780 nM.

With `Cc1nc2c(-c3nnc[nH]3)cc(-c3ccnc(C#N)c3)cc2n1-c1ccnc2c(F)cccc12` (single isomer, unassigned) [Example 127, 4-(1-(8-fluoroquinolin-4-yl)-2-methyl-4-(4H-1,2,4-triazol-3-yl)-1H-benzo[d]imidazol-6-yl)picolinonitrile], the IC50 stood at 9 nM. For `Cc1nc2c(-c3nnc[nH]3)cc(-c3ccnc(C#N)c3)cc2n1-c1ccnc2c(F)cccc12` (single isomer, unassigned) [Example 128, 4-(1-(8-fluoroquinolin-4-yl)-2-methyl-4-(4H-1,2,4-triazol-3-yl)-1H-benzo[d]imidazol-6-yl)picolinonitrile], the IC50 came to 360 nM.
